Experimental findings from patent US9060997B2, “Antifolate compounds for the treatment of melanoma” (UNIVERSIDAD DE MURCIA, priority 2007, dated 2015) are described below.

Each structure is given as a SMILES string. pIC50: −log10 of the molar value.

In general, pIC50 refers to −log10 of the IC50, conventionally taken in molar units.

One assay relates to B16 melanoma. In words: Mouse tumor model, B16 melanoma, topical TMECG cream. Type of assay: in vivo. The method, then: Female C57/B16 mice 6-8 weeks old were obtained from the Animal Research Service (University of Murcia, Spain) and were housed in our animal facilities. All animal work was performed in accordance with the government guidelines. The B16 melanoma cell line (ATCC) was culture in RPMI 1640 medium under standard tissue culture conditions. Mice were shaved on the back using a long-hair cutter and 7.5×10^5 B16 melanoma cells resuspended in 25 μl sterile PBS were injected intradermally on the back. Animals with tumors more than 8 mm in diameter on day 8 or nonvisible tumor growth by day 12 were excluded. Groups consisting of 20 mice per group were differently treated starting at day 8 after tumor cell injection. For TMECG treatments this compound was uniformly mixed in a cosmetic base cream (Thae, Murcia, Spain). Topical treatment of TMECG was given every day at a dose of ≈1 mg/cm2 skin area. Control mice (non-TMECG treated) were topically treated with the some amount of cream alone. Tumor growth and body weight were monitored every second day. A postmortem with histological examination of the lung, liver and brain was performed in all animals. Tissues were fixed in 10% formaldehyde, dehydrated and embedded in paraffin wax. Sections (4 μm) were stained with eosin and hematoxylin. Analyses of gluconic acid content in lungs were carried out as described elsewhere (Pradeep and Kuttan, 2002).

The subject of assay [1] is SkMel-28 cells. In words: Microscopy of melanosome melanin content. Type of assay: cell-based, human. The conditions noted are these: treated SkMel-28 versus untreated. As for the experimental part:
Confluent monolayers of SkMel-28 were harvested with a mixture of 0.05% trypsin, 0.53 mmol/L EDTA and washed once in 0.25 mol/L sucrose by centrifugation at 700×g for 5 min at 4° C. They were then homogenized on ice using 20 strokes of an ice-cold Dounce homogenizer and centrifuged at 700×g for 10 min at 4° C. The resultant postnuclear supernatant was centrifuged at 17,000×g for 15 min at 4° C. to yield a melanosome-enriched granular fraction (17). This fraction was resuspended in 0.5-2 ml of ice-cold 0.25 mol/L sucrose, 10 mmol/L HEPES, pH 7.0 and fixed for 1 h at room temperature in 2% glutaraldehyde, 2% paraformaldehyde in 0.1 mol/L sodium cacodylate buffer, pH 7.3. The fixative was then removed and the samples stored in PBS containing 4% sucrose at 4° C. Samples were subsequently dehydrated with graded alcohols and embedded in epoxy resin. This section were stained with uranyl acetate and lead citrate and examined with a Zeiss EM10 electron microscope.

The subject of a further assay is Caspase-3 mRNA. In words: Caspase-3 mRNA expression (real-time PCR). Type of assay: cell-based, human. The conditions noted are these: SkMel-28, 50 μM, 7 days. As for the experimental part:
(§1) Histograms compare the estimated relative levels of the mRNA with respect to that of β-actin. Values represent the number of copies of mRNA per each 1×10^6 copies of β-actin.
(§2) cDNA samples (1 μL) were used for real-time PCR in a total volume of 20 μL using SYBR Green Reagent (Applied Biosystems) and specific primers on a 7500 Real Time PCR System of Applied Biosystems. The PCR amplification cycles included denaturation 95° C., 15 min; to activate HotStar Taq DNA polymerase and to minimize primer-dimer contribution), and amplification [over 40-50 cycles including denaturation (94° C.; 30 s), annealing (55° C.; 30 s), and extension (72° C.; 1 min)]. All PCR reactions were performed in triplicate and from at least two independent experiments. Non-RT control and negative control samples (without template) were processed in the same manner. The specificity of the amplification was verified by melting curve analysis for all samples, and occasionally by agarosa gel electrophoresis. Amplification of target gene sequences were compared against serial dilutions of know quantities of their purified cDNA fragments, and normalized to the abundance of the house-keeping gene β-actin.
Background: Real-time PCR tracks product formation cycle by cycle.

The subject of assay [2] is SkMel-28 cells. In words: MTT cell proliferation assay, SkMel-28. It counts as cell-based, human. The method, then: (§3) Four human cancer cells lines (SkMel-28, MCF7, H1264 and Caco-2) were obtained from the American Type Tissue Culture Collection (ATCC) and were maintained in appropriate culture mediums supplemented with 10% fetal calf serum (FCS) and antibiotics, under standard tissue culture conditions (e.g. modified Eagle's medium (MEM) containing 1 mM sodium pyruvate and 10% fetal bovine serum (FES) under 5% CO2/95% air atmosphere.). Cell injury was evaluated by a colorimetric assay for mitochondrial function using the 3-(4,5-dimethylthiazolyl-2)-2,5-diphenyltetrazolium bromide (MTT) cell proliferation assay. For this assay cells were plated in a 96-well plate at a density of 1000 cells/well and grown until they reached 50-60% confluence. Human epidermal melanocytes (HeM) were supplied by Gentaur and were cultured in HAM-F10 medium supplemented with 10% FCS, antibiotics and the human melanocyte growth supplement (Gentaur).
Cell injury was evaluated by a colorimetric assay for mitochondrial function using the 3-(4,5-dimethylthiazolyl-2)-2,5-diphenyltetrazolium bromide (MTT) cell proliferation assay. For this assay cells were plated in a 96-well plate at a density of 1000 cells/well and grown until they reached 30% confluence. Co-treatments of SkMel-28 cells with TMECG and other reagents were carried out by supplementing medium cultures with S-adenosylmethionine (SAM), adenosine or dipyridamole (all from Sigma).
For orientation: Tetrazolium dyes change colour on reduction, which living cells bring about.

Assay [3] relates to γ-glutamylcysteine synthetase (GCS) mRNA. In words: GCS mRNA determination in SkMel-28. Type of assay: cell-based, human. The conditions noted are these: SkMel-28 treated with TMECG. As for the experimental part: as §1, §2
Assay [4] has as its system B16/F10 melanoma cell tumours. In words: Primary tumour model, B16/F10 melanoma in C57/B16 mice. Type of assay: in vivo, mouse. The text has this:
Translational therapy was then designed to probe the efficacy of this combination on mice induced melanoma tumor. Injection of 5×10^5 B16/F10 melanoma cells in the back of C57/B16 mice formed a blackish tumor mass, which in untreated control mice reached to a tumor area of 3.7±0.7 and 9.3±1.1 cm2 in female and male, respectively, after 21 days of cells inoculation.

The test system of a further assay is H1264 cells. In words: MTT cell proliferation assay, H1264. Type of assay: cell-based. Particulars: Homo sapiens, 144 h; H1264, 6 days of treatment. As for the experimental part: as §3
Setting [5] is: treated for 21 days, post-mortem.

On to `COc1cc(C(=O)O[C@@H]2Cc3c(O)cc(O)cc3O[C@@H]2c2ccc(O)c(O)c2)cc(OC)c1OC` [TMECG, 3-O-(3,4,5-trimethoxybenzoyl)-(−)-epicatechin], for which the tumor growth result in the assay on B16 melanoma (topical, ≈1 mg/cm2 skin area every day) is given as “significantly reduced”. In addition, the survival time result in the assay on B16 melanoma (topical, ≈1 mg/cm2 skin area every day, female C57/B16 mice) was “longer survival time”. Further, in the assay on B16 melanoma (setting [5]), the “liver and brain metastasis” value is given as “no metastasis in these organs was detected”; the lung metastasis entry was “drastically reduced lung metastasis”. In addition, the melanosome melanin content result in the assay on SkMel-28 cells [1] is listed as “much less melanin content”. Moreover, the “Caspase-3 mRNA, higher than in HeM or untreated SkMel-28” value in the assay on Caspase-3 mRNA is recorded as “around 30 times”. Besides, the “effect of leucovorin co-treatment on growth inhibition” value in the assay on SkMel-28 cells [2] (100 μM leucovorin, MTX 1 μM or TMECG 50 μM, 3 days) was “did not”. In the assay with SkMel-28 cells [2] (Homo sapiens, SK-MEL-28, 120 h, 50 μM, five days of treatment, read-out: growth of SkMel-28 inhibited), the inhibition at 50 µM was over 60%. Further, the pIC50 in the assay with SkMel-28 cells [2] (Homo sapiens, SK-MEL-28, 144 h, SkMel-28, 6 days of treatment, read-out: IC50 (at 6 days)) was 5.54. Further, the “effect of natural and synthetic catechins on SkMel-28 growth” value in the assay with SkMel-28 cells [2] (SkMel-28) is reported as “highly inhibited”. The “DNA fragmentation (apoptosis)” value in the assay on SkMel-28 cells [2] (SkMel-28, 50 μM, 7 days) is on record as “visible after treatment”. The “effect of sulfasalazine (RFC inhibitor) on antiproliferative action” value in the assay on SkMel-28 cells [2] (sulfasalazine 0.5 mM, MTX 0.2 μM or TMECG 10 μM, 3 days) is reported as “enhancing TMECG antiproliferative activity”. Besides, the “GCS mRNA, mean value” in assay [3] is on record as 26300 copies per million of copies of β-actin mRNA. In addition, in assay [4] (females, TMECG 2.5 mg/Kg/d), the tumor mass reduction is 27%. In addition, in assay [4] (male mice), the “effect of single treatments” value is given as “not effective”. Besides, in the assay on H1264 cells, the pIC50 was 4.74.
